pEC50, pIC50: −log10 of the molar value. Read-outs that look alike come from different tables or passages of the source.
Legend:
PC3 = PC3 tumor cell line proliferation assay; type: cell-based; settings: Homo sapiens, PC-3; for pEC50: Table 1; for pIC50: Table 2, in vitro IC50
mTORC = mTORC (Homo sapiens (Human), UniProt P42345); assay: mTORC in vitro IC50 (Table 2); type: biochemical
PI3K α = PI3K α (Homo sapiens (Human), UniProt P42336); assay: PI3K α kinase assay; type: biochemical
PI3K γ = PI3K γ (Homo sapiens (Human), UniProt P48736); assay: PI3K γ kinase assay; type: biochemical; settings: Table 2
PI3K δ = PI3K δ (Homo sapiens (Human), UniProt O00329); assay: PI3K δ kinase assay; type: biochemical; settings: Table 2
Chain of PI3K δ (O00329 whole entry, species assumed): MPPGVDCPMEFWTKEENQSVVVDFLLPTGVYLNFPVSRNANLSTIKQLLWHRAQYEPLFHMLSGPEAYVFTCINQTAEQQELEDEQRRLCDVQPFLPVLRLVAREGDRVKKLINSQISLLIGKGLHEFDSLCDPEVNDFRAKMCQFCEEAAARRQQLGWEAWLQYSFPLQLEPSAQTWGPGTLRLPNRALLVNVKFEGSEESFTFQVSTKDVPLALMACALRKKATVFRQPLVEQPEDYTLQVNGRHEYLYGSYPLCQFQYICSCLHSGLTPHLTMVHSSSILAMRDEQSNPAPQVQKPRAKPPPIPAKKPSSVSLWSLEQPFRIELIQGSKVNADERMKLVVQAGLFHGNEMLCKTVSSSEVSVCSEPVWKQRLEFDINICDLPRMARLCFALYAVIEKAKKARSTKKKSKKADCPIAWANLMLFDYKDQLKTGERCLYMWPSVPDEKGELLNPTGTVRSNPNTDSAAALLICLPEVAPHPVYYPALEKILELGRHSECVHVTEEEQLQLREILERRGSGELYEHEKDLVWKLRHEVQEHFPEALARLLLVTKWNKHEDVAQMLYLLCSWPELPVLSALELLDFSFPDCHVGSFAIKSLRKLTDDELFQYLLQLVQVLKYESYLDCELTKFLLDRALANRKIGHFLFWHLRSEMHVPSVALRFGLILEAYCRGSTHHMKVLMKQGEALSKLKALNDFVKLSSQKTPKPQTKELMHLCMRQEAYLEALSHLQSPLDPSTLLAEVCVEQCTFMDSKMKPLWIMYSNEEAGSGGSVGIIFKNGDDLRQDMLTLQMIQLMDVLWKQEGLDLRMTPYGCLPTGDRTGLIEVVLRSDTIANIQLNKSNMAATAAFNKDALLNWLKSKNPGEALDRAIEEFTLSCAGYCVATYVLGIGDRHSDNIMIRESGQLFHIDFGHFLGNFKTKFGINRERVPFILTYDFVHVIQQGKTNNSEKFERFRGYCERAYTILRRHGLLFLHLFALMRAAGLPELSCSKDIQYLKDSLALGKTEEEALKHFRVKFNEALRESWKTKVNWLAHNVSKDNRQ
Chain of PI3K δ (P27986 whole entry partner, species assumed): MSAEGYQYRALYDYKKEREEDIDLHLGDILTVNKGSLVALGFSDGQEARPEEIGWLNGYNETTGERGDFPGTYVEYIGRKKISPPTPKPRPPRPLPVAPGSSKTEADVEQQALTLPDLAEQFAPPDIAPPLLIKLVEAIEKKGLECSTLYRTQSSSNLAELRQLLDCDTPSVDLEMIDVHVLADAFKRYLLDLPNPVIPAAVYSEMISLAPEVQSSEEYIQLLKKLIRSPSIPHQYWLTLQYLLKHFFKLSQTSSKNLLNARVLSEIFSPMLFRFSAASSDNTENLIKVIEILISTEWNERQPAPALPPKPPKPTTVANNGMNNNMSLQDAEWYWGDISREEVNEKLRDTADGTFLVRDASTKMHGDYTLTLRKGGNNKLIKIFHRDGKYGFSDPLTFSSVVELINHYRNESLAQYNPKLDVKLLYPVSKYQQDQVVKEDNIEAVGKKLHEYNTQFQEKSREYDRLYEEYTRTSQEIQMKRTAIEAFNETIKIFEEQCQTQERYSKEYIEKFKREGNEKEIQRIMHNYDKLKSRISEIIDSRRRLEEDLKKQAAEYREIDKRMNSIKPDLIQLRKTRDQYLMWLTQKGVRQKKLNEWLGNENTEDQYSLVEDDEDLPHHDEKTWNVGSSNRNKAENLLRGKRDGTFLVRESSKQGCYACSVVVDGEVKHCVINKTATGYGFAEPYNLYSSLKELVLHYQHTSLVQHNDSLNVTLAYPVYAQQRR

Chain of PI3K γ (P48736 whole entry, species assumed): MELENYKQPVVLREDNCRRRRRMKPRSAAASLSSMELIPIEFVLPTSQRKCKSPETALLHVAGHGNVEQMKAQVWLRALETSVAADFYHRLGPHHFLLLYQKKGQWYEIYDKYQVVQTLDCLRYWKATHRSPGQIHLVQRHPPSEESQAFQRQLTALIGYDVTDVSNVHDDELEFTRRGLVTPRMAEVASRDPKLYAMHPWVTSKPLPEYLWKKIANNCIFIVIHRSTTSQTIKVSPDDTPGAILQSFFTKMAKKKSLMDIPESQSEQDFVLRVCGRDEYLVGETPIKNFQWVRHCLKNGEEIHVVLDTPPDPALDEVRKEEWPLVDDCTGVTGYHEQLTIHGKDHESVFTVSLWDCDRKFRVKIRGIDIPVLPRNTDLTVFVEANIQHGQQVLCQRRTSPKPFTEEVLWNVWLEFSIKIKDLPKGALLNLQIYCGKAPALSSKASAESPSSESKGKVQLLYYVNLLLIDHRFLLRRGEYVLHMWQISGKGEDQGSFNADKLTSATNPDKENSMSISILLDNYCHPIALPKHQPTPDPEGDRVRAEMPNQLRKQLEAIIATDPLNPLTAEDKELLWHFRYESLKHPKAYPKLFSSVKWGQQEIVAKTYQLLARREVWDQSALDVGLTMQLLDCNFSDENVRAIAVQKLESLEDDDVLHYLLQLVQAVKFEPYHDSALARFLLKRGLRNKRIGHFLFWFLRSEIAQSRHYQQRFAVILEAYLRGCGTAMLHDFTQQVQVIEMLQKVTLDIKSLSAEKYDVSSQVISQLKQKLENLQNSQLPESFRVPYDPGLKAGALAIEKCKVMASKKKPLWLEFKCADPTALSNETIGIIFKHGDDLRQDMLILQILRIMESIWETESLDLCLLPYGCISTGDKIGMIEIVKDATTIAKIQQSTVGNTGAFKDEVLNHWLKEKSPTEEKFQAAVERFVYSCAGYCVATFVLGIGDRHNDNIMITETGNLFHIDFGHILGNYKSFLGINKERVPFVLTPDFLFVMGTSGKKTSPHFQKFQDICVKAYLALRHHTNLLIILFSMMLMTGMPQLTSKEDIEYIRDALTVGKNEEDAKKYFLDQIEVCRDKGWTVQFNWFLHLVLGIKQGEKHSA
Chain of mTORC (P42345 1360-2549): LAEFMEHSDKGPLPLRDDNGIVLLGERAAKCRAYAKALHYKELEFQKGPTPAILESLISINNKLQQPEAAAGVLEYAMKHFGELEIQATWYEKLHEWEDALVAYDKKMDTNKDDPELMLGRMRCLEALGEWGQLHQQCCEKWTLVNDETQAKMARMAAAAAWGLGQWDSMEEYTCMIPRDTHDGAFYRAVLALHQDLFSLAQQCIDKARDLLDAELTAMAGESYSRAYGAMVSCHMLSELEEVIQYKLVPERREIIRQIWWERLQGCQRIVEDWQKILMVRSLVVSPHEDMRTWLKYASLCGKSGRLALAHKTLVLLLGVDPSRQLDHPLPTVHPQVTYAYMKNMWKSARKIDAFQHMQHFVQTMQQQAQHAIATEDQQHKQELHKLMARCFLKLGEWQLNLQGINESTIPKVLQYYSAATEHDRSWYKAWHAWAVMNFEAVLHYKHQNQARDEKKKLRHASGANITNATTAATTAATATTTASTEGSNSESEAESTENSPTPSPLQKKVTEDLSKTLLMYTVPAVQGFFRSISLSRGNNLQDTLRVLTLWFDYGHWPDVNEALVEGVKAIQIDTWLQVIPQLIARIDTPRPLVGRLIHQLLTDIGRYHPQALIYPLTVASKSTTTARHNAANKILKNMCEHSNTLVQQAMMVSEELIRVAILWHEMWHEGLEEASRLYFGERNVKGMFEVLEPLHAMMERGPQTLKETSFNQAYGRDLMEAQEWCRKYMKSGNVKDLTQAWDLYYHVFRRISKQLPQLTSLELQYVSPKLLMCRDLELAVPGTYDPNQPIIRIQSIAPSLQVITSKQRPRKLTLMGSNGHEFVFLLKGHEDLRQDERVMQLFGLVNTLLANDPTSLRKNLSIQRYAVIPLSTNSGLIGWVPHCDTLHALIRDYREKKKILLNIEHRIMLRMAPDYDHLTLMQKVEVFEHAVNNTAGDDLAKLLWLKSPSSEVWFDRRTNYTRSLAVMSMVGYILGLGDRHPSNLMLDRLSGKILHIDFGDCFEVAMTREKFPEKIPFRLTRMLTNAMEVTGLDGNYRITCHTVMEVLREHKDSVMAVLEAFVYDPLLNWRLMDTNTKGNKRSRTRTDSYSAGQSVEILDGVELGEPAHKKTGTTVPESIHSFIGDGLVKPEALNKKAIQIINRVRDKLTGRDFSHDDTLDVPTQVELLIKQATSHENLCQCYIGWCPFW

SMILES | pEC50 (PC3) | pIC50 (PC3) | other results
CC(=O)Nc1nc2cc(-c3nn(C(C)C)c4ncnc(N)c34)ccc2o1 [Compound 2] | > 6.00 |  | 
CC(C)n1nc(-c2ccc3nc(N)oc3c2)c2c(N)ncnc21 [Compound 4] | > 5.00 |  | 
COc1ccc2[nH]c(-c3nn(C(C)C)c4ncnc(N)c34)cc2c1 [Compound 5] |  | < 6.30 | 
Nc1nc2cc(-c3nn(C4CCOCC4)c4ncnc(N)c34)ccc2o1 [Compound 5] | > 7.00 |  | 
CC(C)n1nc(-c2cc3ccccc3n2C)c2c(N)ncnc21 [Compound 6] |  | < 6.30 | 
Nc1nc2cc(-c3nn(C4CCC(N5CCOCC5)CC4)c4ncnc(N)c34)ccc2o1 (centres unmarked) [Compound 6] | > 6.00 |  | 
CC(=O)N1CCC(n2nc(-c3ccc4oc(N)nc4c3)c3c(N)ncnc32)CC1 [Compound 7] | > 5.00 |  | 
CC(C)n1nc(-c2cc3ccccc3[nH]2)c2c(N)ncnc21 [Compound 7] |  | < 6.30 | 
CC(C)n1cc(-c2ccc3oc(N)nc3c2)c2c(N)ncnc21 [Compound 8] | > 7.00 |  | 
COc1cc2cc(-c3nn(C(C)C)c4ncnc(N)c34)[nH]c2cc1Cl [Compound 29] |  |  | pIC50 (mTORC): < 6.30
CC(C)n1nc(-c2cc3cc(O)c(Cl)cc3[nH]2)c2c(N)ncnc21 [Compound 32] |  | < 6.30 | pIC50 (PI3K α): < 6.30; pIC50 (PI3K γ): < 6.30; pIC50 (PI3K δ): < 6.30; pIC50 (mTORC): > 6.30
Nc1ncnc2c1c(-c1cc3cc(O)ccc3[nH]1)nn2CCN1CCOCC1 [Compound 33] |  | < 6.30 | pIC50 (PI3K α; Table 2): < 6.30; pIC50 (PI3K γ): < 6.30; pIC50 (PI3K δ): < 6.30; pIC50 (mTORC): > 6.30
Nc1ncnc2c1c(-c1cc3cc(O)ccc3[nH]1)nn2CC(=O)N1CCOCC1 [Compound 34] |  |  | pIC50 (PI3K α; Table 2): < 6.30; pIC50 (PI3K γ): < 6.30; pIC50 (PI3K δ): < 6.30; pIC50 (mTORC): < 6.30
CNC(=O)Cn1nc(-c2cc3cc(O)ccc3[nH]2)c2c(N)ncnc21 [Compound 35] |  |  | pIC50 (PI3K α; Table 2): < 6.30; pIC50 (PI3K γ): < 6.30; pIC50 (PI3K δ): < 6.30; pIC50 (mTORC): < 6.30
CC(C)n1nc(-c2cc3c(O)cccc3[nH]2)c2c(N)ncnc21 [Compound 37] |  |  | pIC50 (PI3K α; Table 2): > 6.30; pIC50 (PI3K γ): > 6.30; pIC50 (PI3K δ): > 6.30; pIC50 (mTORC): < 6.30
CC(C)n1nc(-c2cc3cc(O)ccc3[nH]2)c2c(N)nccc21 [Compound 45] |  |  | pIC50 (mTORC): < 6.30

Second part, led by results:

pEC50 (PC3) | pIC50 (PC3) | SMILES | other results
 | < 6.30 | COc1ccc2cc(-c3nn(C(C)C)c4ncnc(N)c34)[nH]c2c1 [Compound 8] | 
 | < 6.30 | CC(C)n1nc(-c2cc3c(Cl)cccc3[nH]2)c2c(N)ncnc21 [Compound 9] | 
> 7.00 |  | Nc1nc2cc(-c3cn(C4CCOCC4)c4ncnc(N)c34)ccc2o1 [Compound 9] | 
< 5.00 |  | CC(C)n1nc(-c2ccc3onc(N)c3c2)c2c(N)ncnc21 [Compound 10] | 
< 5.00 |  | CC(=O)Nc1noc2cc(-c3nn(C(C)C)c4ncnc(N)c34)ccc12 [Compound 11] | 
 | > 7.30 | CC(C)n1nc(-c2cc3cccc(O)c3[nH]2)c2c(N)ncnc21 [Compound 11] | 
< 5.00 |  | CC(C)n1nc(-c2ccc3c(N)noc3c2)c2c(N)ncnc21 [Compound 12] | 
 | > 7.30 | Nc1ncnc2c1c(-c1cc3cc(O)ccc3[nH]1)nn2C1CCCC1 [Compound 12] | 
 | < 6.30 | COc1cc(Cl)c2[nH]c(-c3nn(C(C)C)c4ncnc(N)c34)cc2c1 [Compound 13] | 
 | > 7.30 | CC(C)n1nc(-c2cc3cc(O)cc(Cl)c3[nH]2)c2c(N)ncnc21 [Compound 15] | 
 | > 6.30 | CC(C)n1nc(-c2cc3cc(O)cc(F)c3[nH]2)c2c(N)ncnc21 [Compound 16] | 
 | < 6.30 | CC(C)n1nc(-c2cc3cc(Cl)ccc3[nH]2)c2c(N)ncnc21 [Compound 17] | 
 | < 6.30 | CC(C)n1nc(-c2cc3ccc(O)cc3[nH]2)c2c(N)ncnc21 [Compound 21] | 
 | < 6.30 | CC(C)n1nc(-c2cc3ccc(C#N)cc3[nH]2)c2c(N)ncnc21 [Compound 24] | 
 | < 6.30 | CC(C)n1nc(-c2cc3ccc(C(N)=O)cc3[nH]2)c2c(N)ncnc21 [Compound 25] | 
 | > 6.30 | Nc1ncnc2c1c(-c1cc3cc(O)ccc3[nH]1)nn2C1CCCCC1 [Compound 26] | 
 | > 6.30 | Nc1ncnc2c1c(-c1cc3cc(O)ccc3[nH]1)nn2C1CCC1 [Compound 27] | 
